# Like-named read-outs stand apart in the source and are kept apart here.
# Assays:
# Type in all cases: in vivo
# Phakopsora pachyrhizi [1] = experiment: Leaf disc test with Phakopsora pachyrhizi on glyphosate sensitive soybean, leaf disks treated (Example 4)
# Source text: (§1) A synergistic effect exists whenever the action of an active ingredient combination is greater than the action expected from the effect of the individual components.
# (§2) The action to be expected (E) for a given active ingredient combination obeys the so-called COLBY formula and can be calculated as follows (COLBY, S. R. “Calculating synergistic and antagonistic responses of herbicide combination”. Weeds, Vol. 15, pages 20-22; 1967):
# (§3) ppm=milligrams of active ingredient (=a.i.) per litre of spray mixture X=% action by active ingredient I using p ppm of active ingredient Y=% action by active ingredient II using q ppm of active ingredient.
# (§4) According to Colby, the expected (additive) action of active ingredients I+II using p+q ppm of active ingredient is
# (§5) If the action actually observed (O) is greater than the expected action (E), then the action of the combination is superadditive, i.e. there is a synergistic effect.
# (§6) A series of leaf disc tests were conducted to show the effects of tank mixtures of glyphosate and pesticides or plant activators on Asian soybean rust. The soybean variety tested was brand Williams82 glyphosate sensitive soybean. The leaf source for the testing was the first trifoliate leaf. Six (6) repetitions for each formulation and at each rate were conducted. Treatment of the leaf disks with the recited active ingredients was conducted 4 weeks after planting. The leaves were inoculated with Phakopsora pachyrhizi (Asian soybean rust (ASR)) one (1) day after treatment. Evaluation of the leaf was conducted ten (10) days after inoculation and the mean percent infestation of the six repetitions is reported in Tables 8-11.
# As glyphosate source Touchdown® HiTech or Zapp® QI was used. The fungicides were used as commercial formulations: Bion® WG50 plant activator comprising acibenzolar-S-methyl (Syngenta Corp.), Opus® SC125 fungicide comprising epoxiconazole commercially (BASF AG), Tilt® EC250 fungicide comprising propiconazole (Syngenta Corp.), Quadris® SC250 fungicide comprising azoxystrobin (Syngenta Corp.). The rates of the active ingredients used in the tests are set in Tables 8-11 as mg active ingredient (a.i.)/L.
# Phakopsora pachyrhizi [2] = experiment: whole plant or invertebrate; settings: in Glycine max, foliar, read-out: % activity observed
# Source text: as §1, §2, §3, §4, §5
# as §6, with “the ortho-substituted phenyl-amide (OPA) fungicides represented by structures F-5 and F-9” for “pesticides or plant activators”, “leaf” for “leaf disks”, “3 and 4.” for “8-11.”
# The glyphosate source was Touchdown® HiTech herbicide (Syngenta Corp.), containing the potassium salt of glyphosate and no adjuvant system. The compound OPA F-5 used was a compound of formula F-5, wherein the ratio of racemic compounds of formula F-3 (syn) to racemic compounds of formula F-4 (anti) was 9:1. The compound OPA F-9 used was a compound of formula F-9, wherein the ratio of racemic compounds of formula F-7 (trans) to racemic compounds of formula F-8 (cis) was around 100:1. The fungicides used were EC100 formulations of OPA F-5 and OPA F-9 which are emulsion concentrates containing 100 ga.i./L. The rates of the active ingredients used in the tests are set in the table as mg active ingredient (a.i.)/L.
# Puccinia recondita = experiment: Greenhouse trial with Puccinia recondita on glyphosate sensitive wheat (Example 3); settings: read-out: % activity observed
# Source text: as §1, §2, §3, §4, §5
# Greenhouse tests were conducted to show the effects of tank mixtures of glyphosate and the ortho-substituted phenyl-amide (OPA) fungicides represented by structures F-10, F-5 and F-9 on cereal rust Puccinia recondita. The wheat variety tested was brand Kanzler glyphosate sensitive wheat. Three (3) repetitions for each formulation and at each rate were conducted. Treatment of the plants with the recited active ingredients was conducted preventatively 16 days after planting. The leaves were inoculated with Puccinia recondita one (1) day after treatment. Evaluation of the leaf was conducted […] after inoculation and the mean percent infestation of the three repetitions is reported in Tables 5-7.
# The glyphosate source was Zapp® QI herbicide containing the potassium salt of glyphosate as well as an adjuvant system. The compound OPA F-5 used was a compound of formula F-5, wherein the ratio of racemic compounds of formula F-3 (syn) to racemic compounds of formula F-4 (anti) was 9:1. The compound OPA F-9 used was a compound of formula F-9, wherein the ratio of racemic compounds of formula F-7 (trans) to racemic compounds of formula F-8 (cis) was around 100:1. The fungicides used were EC 100 formulations of OPA F-10, OPA F-5 and OPA F-9 which are emulsion concentrates containing 100 ga.i./L. The rates of the active ingredients used in the tests are set in Tables 5-7 as mg active ingredient (a.i.)/L.
# Phakopsora pachyrhizi [3] = experiment: Application on whole plants: leaf disc test with Phakopsora pachyrhizi on glyphosate sensitive soybean (Example 5)
# Source text: as §1, §2, §3, §4, §5
# (§7) A series of leaf disc tests were conducted to show the effects of tank mixtures of glyphosate and pesticides or plant activators on Asian soybean rust. The soybean variety tested was brand Williams82 glyphosate sensitive soybean. The leaf source for the testing was the first trifoliate leaf. Six (6) repetitions for each formulation and at each rate were conducted. Treatment of whole plants with the recited active ingredients was conducted 4 weeks after planting. After application, leaf disks were cut and inoculated with Phakopsora pachyrhizi (Asian soybean rust (ASR)) one (1) day after treatment. Evaluation of the leaf was conducted ten (10) days after inoculation and the mean percent infestation of the six repetitions is reported in Tables 12-14.
# As glyphosate source Touchdown® HiTech or Zapp® QI was used. The fungicides were used as commercial formulations: Cantus® WG50 fungicide comprising boscalid (BASF AG), Quadris® SC250 fungicide and Bion® WG50 plant activator comprising acibenzolar-S-methyl. The rates of the active ingredients used in the tests are set in Tables 12-14 as g active ingredient (a.i.)/hectare (ha). The spray volume was 200 l/ha.
# Phakopsora pachyrhizi [4] = experiment: Application on whole plants: leaf disc test with Phakopsora pachyrhizi on glyphosate tolerant soybean (Example 6)
# Source text: as §1, §2, §3, §4, §5
# as §7, with “Leaf” for “A series of leaf”, “S40-R9” for “Williams82”, “tolerant” for “sensitive”, “[…]” for “of whole plants with the recited active ingredients was conducted 4 weeks after planting. After”, “15-17.” for “12-14.”
# As glyphosate source Touchdown® HiTech or Zapp® QI was used. The fungicides were used as commercial formulations: Bravo® SC500 fungicide comprising chlorothalonil (Syngenta Corp.), Score® EC250 fungicide comprising difenaconazole (Syngenta Corp.) and Mancozeb 80WP fungicide comprising mancozeb. The rates of the active ingredients used in the tests are set in Tables 15-17 as g active ingredient (a.i.)/hectare (ha). The spray volume was 200 l/ha.
# [5] = Epoxiconazole Opus SC125 0.2 mg a.i./L
# [6] = Acibenzolar Bion WG50 6.7 mg a.i./L
# [7] = Acibenzolar Bion WG50 20 mg a.i./L
# [8] = Acibenzolar Bion WG50 10 g a.i./ha
# [9] = Acibenzolar Bion WG50 60 g a.i./ha
# [10] = Azoxystrobin Quadris SC250 0.2 mg a.i./L
# [11] = Azoxystrobin Quadris SC250 0.7 mg a.i./L
# [12] = Azoxystrobin Quadris SC250 50 g a.i./ha
# [13] = Azoxystrobin Quadris SC250 100 g a.i./ha
# [14] = Boscalid Cantus WG50 250 g a.i./ha
# [15] = Boscalid Cantus WG50 500 g a.i./ha
# [16] = Chlorothalonil Bravo SC500 83.3 g a.i./ha
# [17] = Chlorothalonil Bravo SC500 1500 g a.i./ha
# [18] = Difenoconazole Score EC250 5 g a.i./ha
# [19] = Difenoconazole Score EC250 15 g a.i./ha
# [20] = Propiconazole Tilt EC250 0.7 mg a.i./L
compound,measurement,setting,value
"Fc1ccc([C@]2(Cn3cncn3)O[C@H]2c2ccccc2Cl)cc1 (racemic) [Epoxiconazole, epoxiconazole]",Activity observed %,Phakopsora pachyrhizi [1]; [5],19%
same,Leaf attack %,Phakopsora pachyrhizi [1]; [5],62%
Cn1cc(C(=O)Nc2ccccc2C2CC2C2CC2)c(C(F)F)n1 (racemic) [OPA F-9],inhibition at 0.2 µg/mL,Phakopsora pachyrhizi [2]; OPA F-9 0.2 mg a.i./L,0%
same,inhibition at 0.7 µg/mL,Phakopsora pachyrhizi [2]; OPA F-9 0.7 mg a.i./L,0%
same,inhibition at 2.2 µg/mL,Phakopsora pachyrhizi [2]; OPA F-9 2.2 mg a.i./L,24%
same,inhibition at 6.7 µg/mL,Phakopsora pachyrhizi [2]; OPA F-9 6.7 mg a.i./L,74%
same,inhibition at 20 µg/mL,Phakopsora pachyrhizi [2]; OPA F-9 20 mg a.i./L,100%
same,inhibition at 6.6 µg/mL,Puccinia recondita; OPA F-9 6.6 mg a.i./L,81.9%
"CSC(=O)c1cccc2nnsc12 [Acibenzolar, acibenzolar-S-methyl]",Activity observed %,Phakopsora pachyrhizi [1]; [6],0%
same,Leaf attack %,Phakopsora pachyrhizi [1]; [6],74%
same,Activity observed %,Phakopsora pachyrhizi [1]; [7],10%
same,Leaf attack %,Phakopsora pachyrhizi [1]; [7],62%
same,Activity observed %,Phakopsora pachyrhizi [3]; [8],19%
same,Leaf attack %,Phakopsora pachyrhizi [3]; [8],50%
same,Activity observed %,Phakopsora pachyrhizi [3]; [9],31%
same,Leaf attack %,Phakopsora pachyrhizi [3]; [9],43%
"CO/C=C(/C(=O)OC)c1ccccc1Oc1cc(Oc2ccccc2C#N)ncn1 [Azoxystrobin, azoxystrobin]",Activity observed %,Phakopsora pachyrhizi [1]; [10],15%
same,Leaf attack %,Phakopsora pachyrhizi [1]; [10],68%
same,Activity observed %,Phakopsora pachyrhizi [1]; [11],60%
same,Leaf attack %,Phakopsora pachyrhizi [1]; [11],32%
same,Activity observed %,Phakopsora pachyrhizi [3]; [12],0%
same,Leaf attack %,Phakopsora pachyrhizi [3]; [12],62%
same,Activity observed %,Phakopsora pachyrhizi [3]; [13],29%
same,Leaf attack %,Phakopsora pachyrhizi [3]; [13],44%
"O=C(Nc1ccccc1-c1ccc(Cl)cc1)c1cccnc1Cl [Boscalid, boscalid]",Activity observed %,Phakopsora pachyrhizi [3]; [14],7%
same,Leaf attack %,Phakopsora pachyrhizi [3]; [14],58%
same,Activity observed %,Phakopsora pachyrhizi [3]; [15],19%
same,Leaf attack %,Phakopsora pachyrhizi [3]; [15],50%
"N#Cc1c(Cl)c(Cl)c(Cl)c(C#N)c1Cl [Chlorothalonil, chlorothalonil]",Activity observed %,Phakopsora pachyrhizi [4]; [16],0%
same,Leaf attack %,Phakopsora pachyrhizi [4]; [16],80%
same,Activity observed %,Phakopsora pachyrhizi [4]; [17],17%
same,Leaf attack %,Phakopsora pachyrhizi [4]; [17],50%
"CC1COC(Cn2cncn2)(c2ccc(Oc3ccc(Cl)cc3)cc2Cl)O1 (centres unmarked) [Difenoconazole, difenaconazole]",Activity observed %,Phakopsora pachyrhizi [4]; [18],0%
same,Leaf attack %,Phakopsora pachyrhizi [4]; [18],50%
same,Activity observed %,Phakopsora pachyrhizi [4]; [19],0%
same,Leaf attack %,Phakopsora pachyrhizi [4]; [19],50%
Cn1cc(C(=O)Nc2ccccc2-c2ccc(C#CC(C)(C)C)cc2)c(C(F)F)n1 [OPA F-10],inhibition at 2.2 µg/mL,Puccinia recondita; OPA F-10 2.2 mg a.i./L,0%
same,inhibition at 6.6 µg/mL,Puccinia recondita; OPA F-10 6.6 mg a.i./L,0%
"CCCC1COC(Cn2cncn2)(c2ccc(Cl)cc2Cl)O1 (centres unmarked) [Propiconazole, propiconazole]",Activity observed %,Phakopsora pachyrhizi [1]; [20],4%
same,Leaf attack %,Phakopsora pachyrhizi [1]; [20],74%
mancozeb,Activity observed %,Phakopsora pachyrhizi [4]; Mancozeb WP80 750 g a.i./ha,47%
same,Leaf attack %,Phakopsora pachyrhizi [4]; Mancozeb WP80 750 g a.i./ha,32%
same,Activity observed %,Phakopsora pachyrhizi [4]; Mancozeb WP80 1500 g a.i./ha,37%
same,Leaf attack %,Phakopsora pachyrhizi [4]; Mancozeb WP80 1500 g a.i./ha,38%
